According to patent publication US11780849B2, “Imino sulfanone inhibitors of ENPP1” (Volastra Therapeutics, Inc., priority 2020, dated 2023):
pKi: −log10 of the molar value. Where two headings read alike, the source gives them in different places.

Molecular target: ENPP-1 ECD (Homo sapiens (Human), UniProt P22413)
Test: Assay 2: inhibition of ENPP1 hydrolysis of 2′,3′-cGAMP (AMP-Glo, […] enzyme)
Settings: for Ki: inhibition of ENPP1 hydrolysis of 2′,3′-cGAMP, no unit in Table 18 (Table 17 legend for this assay uses nM); for pKi: ENPP1 hydrolysis of 2′,3′-cGAMP, AMP-Glo, […] ENPP-1, 24 μM cGAMP
Procedure: Assay 2: Compared to the conditions in Assay 1, this assay has a larger dynamic range and ensures the system is under steady-state conditions by reducing the enzyme concentration in the assay.
Test compounds were plated in a 3× dilution scheme in a 384 well plate. […] AMP Detection solution (10 μL) was added to each well, the plate centrifuged and incubated for 60 min.

ENPP-1 ECD, sequence (P22413 98-925): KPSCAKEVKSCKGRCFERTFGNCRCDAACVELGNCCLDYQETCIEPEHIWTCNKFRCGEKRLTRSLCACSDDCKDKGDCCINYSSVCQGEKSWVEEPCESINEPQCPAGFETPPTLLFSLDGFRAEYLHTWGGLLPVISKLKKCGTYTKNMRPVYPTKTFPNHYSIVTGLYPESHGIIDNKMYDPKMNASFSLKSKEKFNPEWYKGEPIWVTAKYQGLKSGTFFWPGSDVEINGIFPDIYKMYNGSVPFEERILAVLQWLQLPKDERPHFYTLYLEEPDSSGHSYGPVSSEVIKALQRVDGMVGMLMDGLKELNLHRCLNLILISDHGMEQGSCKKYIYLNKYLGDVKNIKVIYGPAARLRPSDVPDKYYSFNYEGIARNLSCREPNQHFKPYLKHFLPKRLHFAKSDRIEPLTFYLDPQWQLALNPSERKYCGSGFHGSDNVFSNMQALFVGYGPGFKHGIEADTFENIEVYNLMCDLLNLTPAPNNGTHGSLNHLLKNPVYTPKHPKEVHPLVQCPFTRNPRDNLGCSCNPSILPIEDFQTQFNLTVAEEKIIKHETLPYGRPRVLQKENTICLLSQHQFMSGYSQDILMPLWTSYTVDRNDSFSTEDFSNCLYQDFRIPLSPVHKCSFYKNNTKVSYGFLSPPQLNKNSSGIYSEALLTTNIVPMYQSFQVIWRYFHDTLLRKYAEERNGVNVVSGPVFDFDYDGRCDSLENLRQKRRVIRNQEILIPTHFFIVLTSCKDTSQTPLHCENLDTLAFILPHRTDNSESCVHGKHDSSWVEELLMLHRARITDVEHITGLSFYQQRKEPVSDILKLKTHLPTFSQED

| Ki (Assay 2 (KI)) | Ki (read-out: Assay 2 (KI)) | Compound | also measured |
| --- | --- | --- | --- |
| 27 nM |  | COc1ccc2c(OCC3CCS(=N)(=O)CC3)ccnc2c1 (single isomer, unassigned) [Compound 107a, 4-[(1-imino-1-oxido-3,4,5,6-tetrahydro-2H-thiopyran-4-yl)methoxy]-7-methoxy-quinoline] |  |
| 74 nM |  | COc1ccc2c(OCC3CCS(=N)(=O)CC3)ccnc2c1 (single isomer, unassigned) [Compound 107b, 4-[(1-imino-1-oxido-3,4,5,6-tetrahydro-2H-thiopyran-4-yl)methoxy]-7-methoxy-quinoline] |  |
|  | 21 nM | COc1cc2ncnc(-c3ccc4c(c3)CN([S@@](C)(=N)=O)CC4)c2cc1OC [Compound 37a] | pKi (read-out: Assay 2 (KI)): 6.52 to 8.52 |
|  | 110 nM | COc1ccc2c(-c3ccc4c(c3)CN([S@](C)(=N)=O)CC4)ccnc2c1 [Compound 52a] | pKi (read-out: Assay 2 (KI)): 6.52 to 8.52 |
|  | 3.5 nM | COc1ccc2c(-c3ccc4c(c3)CN([S@@](C)(=N)=O)CC4)ccnc2c1 [Compound 52b] | pKi (read-out: Assay 2 (KI)): 6.52 to 8.52 |
| 150 nM |  | COc1ccc2c(Oc3ccc(S(C)(=N)=O)cc3)ccnc2n1 (stereo not drawn) [Compound 78, imino(4-((7-methoxy-1,8-naphthyridin-4-yl)oxy)phenyl)(methyl)-λ^6-sulfanone] | pKi (Assay 2 (KI)): 6.52 to 8.52 |
|  | 9 nM | COc1cc2ncnc(N3CCC(CN[S@](C)(=N)=O)CC3)c2cc1OC [Compound 94b] | pKi (read-out: Assay 2 (KI)): 6.52 to 8.52 |
| 80 nM |  | COc1ccc2c(OCC3CCS(=N)(=O)CC3)ccnc2c1 (stereo not drawn) [Compound 107, 4-[(1-imino-1-oxido-3,4,5,6-tetrahydro-2H-thiopyran-4-yl)methoxy]-7-methoxy-quinoline] |  |
| 1.6 nM |  | COCCS(=N)(=O)c1ccc(Oc2ccnc3cc(OC)ccc23)cc1 (stereo not drawn) [Compound 122, imino(2-methoxyethyl){4-[(7-methoxyquinolin-4-yl)oxy]phenyl}-λ^6-sulfanone] | pKi (Assay 2 (KI)): > 8.52 |
|  | 31 nM | COc1cc2nccc(N3CCC(CC[S@](C)(=N)=O)CC3)c2cc1Cl [Compound 141b] | pKi (read-out: Assay 2 (KI)): 6.52 to 8.52 |
| 8.7 nM |  | COc1cc2ncnc(N3CCC(CCCS(C)(=N)=O)CC3)c2cc1OC (stereo not drawn) [Compound 145, {3-[1-(6,7-dimethoxyquinazolin-4-yl)piperidin-4-yl]propyl}(imino)methyl-λ^6-sulfanone] | pKi (Assay 2 (KI)): 6.52 to 8.52 |
|  | 66 nM | COc1cccc2c(N3CCC(C[S@](C)(=N)=O)CC3)ncnc12 [Compound 146b] |  |
| 9.9 nM |  | COc1cc2ncnc(N3CCC(CS(C)(=N)=O)CC3)c2cc1OC (stereo not drawn) [Compound 147, {[1-(6,7-dimethoxyquinazolin-4-yl)piperidin-4-yl]methyl}(imino)methyl-λ^6-sulfanone] | pKi (Assay 2 (KI)): 6.52 to 8.52 |
| 56 nM |  | COc1ccc2c(N3CCC(CS(C)(=N)=O)CC3)ccnc2c1 (stereo not drawn) [Compound 148, imino({[1-(7-methoxyquinolin-4-yl)piperidin-4-yl]methyl})methyl-λ^6-sulfanone] | pKi (Assay 2 (KI)): 6.52 to 8.52 |
|  | 2.9 nM | COc1cc2nccc(N3CCC4(CC3)CCN([S@](C)(=N)=O)C4)c2cc1Cl [Compound 156b] | pKi (read-out: Assay 2 (KI)): > 8.52 |
| 2.7 nM |  | COc1cc2nccc(N3CCC(CNS(C)(=N)=O)CC3)c2cc1Cl (stereo not drawn) [Compound 157, N-{[1-(6-chloro-7-methoxyquinolin-4-yl)piperidin-4-yl]methyl}methanesulfonoimidamide] | pKi (Assay 2 (KI)): > 8.52 |
| 0.44 nM |  | COc1ccc2c(N3CCC4(CC3)CCN(S(C)(=N)=O)C4)ccnc2n1 (stereo not drawn) [Compound 158, imino[8-(7-methoxy-1,8-naphthyridin-4-yl)-2,8-diazaspiro[4.5]decan-2-yl]methyl-λ^6-sulfanone] | pKi (Assay 2 (KI)): > 8.52 |
|  | 1.7 nM | COc1cc2ncnc(N3CCC4(CC3)CCN([S@@](=N)(=O)C3CC3)C4)c2cc1OC [Compound 160b] |  |
|  | 0.64 nM | COc1cc2nccc(-c3ccc4c(c3)CN([S@](C)(=N)=O)CC4)c2cc1OC [Compound 161b] | pKi (read-out: Assay 2 (KI)): > 8.52 |
| 21 nM |  | COc1ccc2c(-c3ccc4c(c3)CN(S(C)(=N)=O)CC4)ccnc2n1 (stereo not drawn) [Compound 163, imino[7-(7-methoxy-1,8-naphthyridin-4-yl)-1,2,3,4-tetrahydroisoquinolin-2-yl]methyl-λ^6-sulfanone] | pKi (Assay 2 (KI)): 6.52 to 8.52 |
| 97 nM |  | COc1cc2ncnc(OCC3CCN(S(C)(=N)=O)CC3)c2cc1OC (stereo not drawn) [Compound 164, (4-{[(6,7-dimethoxyquinazolin-4-yl)oxy]methyl}piperidin-1-yl)(imino)methyl-λ^6-sulfanone] | pKi (Assay 2 (KI)): 6.52 to 8.52 |
| 7.9 nM |  | COc1ccc2c(Oc3ccc(S(C)(=N)=O)cc3)ncnc2c1 (stereo not drawn) [Compound 167, imino({4-[(7-methoxyquinazolin-4-yl)oxy]phenyl})methyl-λ^6-sulfanone] |  |
| 49 nM |  | COc1cc2ncnc(OCC3CCS(=N)(=O)CC3)c2cc1OC (stereo not drawn) [Compound 171, 4-{[(6,7-dimethoxyquinazolin-4-yl)oxy]methyl}-1-imino-1λ^6-thian-1-one] |  |
| 11 nM |  | COc1ccc2c(OCc3cncc(S(C)(=N)=O)c3)ccnc2c1 (stereo not drawn) [Compound 172, imino(5-{[(7-methoxyquinolin-4-yl)oxy]methyl}pyridin-3-yl)methyl-λ^6-sulfanone] |  |
|  | 4.1 nM | COc1cc2nccc(OCc3cccc([S@@](C)(=N)=O)c3)c2cc1OC [Compound 175b] |  |

| Ki (Assay 2 (KI)) | Ki (read-out: Assay 2 (KI)) | Compound | also measured |
| --- | --- | --- | --- |
|  | 20 nM | COc1ccc2c(OCc3cc(F)cc([S@@](C)(=N)=O)c3)ccnc2c1 [Compound 177a] |  |
| 2.6 nM |  | COc1ccc2c(O[C@H](C)c3cccc(S(C)(=N)=O)c3)ccnc2c1 (stereo partly drawn) [Compound 178, imino({3-[(1R)-1-[(7-methoxyquinolin-4-yl)oxy]ethyl]phenyl})methyl-λ^6-sulfanone] |  |
|  | 34 nM | COc1ccc2c(O[C@H](C)c3cccc([S@](C)(=N)=O)c3)ccnc2c1 [Compound 178b] |  |
|  | 9.1 nM | COc1cccc2c(N3CCC(C[S@@](C)(=N)=O)CC3)c(C#N)cnc12 [Compound 179a] |  |
| 16 nM |  | COc1cccc2c(N3CCC(CS(C)(=N)=O)CC3)ccnc12 (stereo not drawn) [Compound 180, imino({[1-(8-methoxyquinolin-4-yl)piperidin-4-yl]methyl})methyl-λ^6-sulfanone] |  |
| 3.1 nM |  | COc1cccc2c(N3CCC(CS(C)(=N)=O)CC3)cnnc12 (stereo not drawn) [Compound 182, imino({[1-(8-methoxycinnolin-4-yl)piperidin-4-yl]methyl})methyl-λ^6-sulfanone] |  |
| 5.2 nM |  | COc1cc(F)cc2c(N3CCC(CS(C)(=N)=O)CC3)ncnc12 (stereo not drawn) [Compound 183, {[1-(6-fluoro-8-methoxyquinazolin-4-yl)piperidin-4-yl]methyl}(imino)methyl-λ^6-sulfanone] |  |
|  | 2.9 nM | COc1cc(F)cc2c(N3CCC(C[S@@](C)(=N)=O)CC3)ncnc12 [Compound 183a] |  |
|  | > 150 nM | COc1cc(F)cc2c(N3CCC(CS(C)(=N)=O)CC3)ncnc12 (stereo not drawn) [Compound 183b] |  |
|  | 2.8 nM | COc1cccc2c(N3CCC(O)(C[S@](C)(=N)=O)CC3)ncnc12 [Compound 185b] |  |
|  | 8.8 nM | COc1cccc2c(N3CCC(C[S@@](=N)(=O)C4CC4)CC3)c(C#N)cnc12 [Compound 189a] |  |
|  | 0.58 nM | COc1cc2nccc(NCc3cccc(S(C)(=N)=O)c3)c2cc1F (stereo not drawn) [Compound 192, (3-{[(6-fluoro-7-methoxyquinolin-4-yl)amino]methyl}phenyl)(imino)methyl-λ^6-sulfanone] |  |
|  | 54 nM | COc1cccc2c(N3CCC(O)(C[S@@](=N)(=O)C4CC4)CC3)ncnc12 [Compound 193a] |  |
| 40 nM |  | COc1cccc2c(N3CCC(O)(CS(C)(=N)=O)C4(CC4)C3)ncnc12 (stereo not drawn) [Compound 194, {[8-hydroxy-5-(8-methoxyquinazolin-4-yl)-5-azaspiro[2.5]octan-8-yl]methyl}(imino)methyl-λ^6-sulfanone] |  |
| 0.2 nM |  | CCS(=N)(=O)CC1(O)CCN(c2ncnc3c(OC)cccc23)CC1 (stereo not drawn) [Compound 195, ethyl({[4-hydroxy-1-(8-methoxyquinazolin-4-yl)piperidin-4-yl]methyl})imino-λ^6-sulfanone] |  |
|  | 0.052 nM | CC[S@@](=N)(=O)CC1(O)CCN(c2ncnc3c(OC)cccc23)CC1 [Compound 195a] |  |
|  | 7.7 nM | CC[S@](=N)(=O)CC1(O)CCN(c2ncnc3c(OC)cccc23)CC1 [Compound 195b] |  |
|  | 1.2 nM | COc1cccc2c(N3CCC(O)(C[S@](C)(=N)=O)CC3)c(C#N)cnc12 [Compound 198b] |  |
| 370 nM |  | COc1cccc2c(N3CCC(CS(C)(=N)=O)CC3)c(F)cnc12 (stereo not drawn) [Compound 202, {[1-(3-fluoro-8-methoxyquinolin-4-yl)piperidin-4-yl]methyl}(imino)methyl-λ^6-sulfanone] |  |
| 1.7 nM |  | COc1ccc(F)c2c(N3CCC(CS(C)(=N)=O)CC3)c(C#N)cnc12 (stereo not drawn) [Compound 203, 5-fluoro-4-(4-{[imino(methyl)oxo-λ^6-sulfanyl]methyl}piperidin-1-yl)-8-methoxyquinoline-3-carbonitrile] |  |
| 28 nM |  | COc1cc2nccc(-c3cccc(CCS(C)(=N)=O)c3)c2cc1OC (stereo not drawn) [Compound 204, {2-[3-(6,7-dimethoxyquinolin-4-yl)phenyl]ethyl}(imino)methyl-λ^6-sulfanone] |  |
|  | 5 nM | COc1cc2nccc(N3CCC4(CC3)CCN([S@](C)(=N)=O)C4)c2cc1F [Compound 205a] |  |
| 17 nM |  | COc1cc2ncnc(N3CC4(CCN(S(C)(=N)=O)CC4)C3)c2cc1OC (stereo not drawn) [Compound 206, [2-(6,7-dimethoxyquinazolin-4-yl)-2,7-diazaspiro[3.5]nonan-7-yl](imino)methyl-λ^6-sulfanone] |  |
| 17 nM |  | COc1cc2ncnc(N3CCC4(CC3)CCN(S(C)(=N)=O)CC4)c2cc1OC (stereo not drawn) [Compound 209, [9-(6,7-dimethoxyquinazolin-4-yl)-3,9-diazaspiro[5.5]undecan-3-yl](imino)methyl-λ^6-sulfanone] |  |
|  | 0.5 nM | COc1cc2nncc(N3CCC4(CC3)CCN([S@@](C)(=N)=O)C4)c2cc1OC [Compound 211b] |  |
